Key:
HeLa [1] = experiment: Antiproliferative activity against human HeLa cells assessed as cell growth inhibition at 12.5 uM relative to control; type: functional; parameters: scale not given: the % may be the effect or the level left
HeLa [2] = experiment: Antiproliferative activity against human HeLa cells assessed as cell growth inhibition at 2 uM relative to control; type: functional; parameters: scale not given: the % may be the effect or the level left
[3] = biological target: Matrix metalloproteinase-9 (Homo sapiens, UniProt P14780); experiment: Inhibition of MMP9 (unknown origin)
[4] = Oral bioavailability in C57BL/6 mouse; type: ADME, organism-based; settings: in vivo
[5] = Activation of Nrf2-ARE pathway in LPS-induced human HepG2-ARE-C8 cells; type: cell-based
[6] = Permeability of compound by PAMPA assay; type: ADME; settings: read-out: permeability
Keap1/Nrf2 = Keap1/Nrf2 (Homo sapiens, UniProt Q14145+Q16236); experiment: Inhibition of Keap1-Nrf2 (unknown origin); type: protein assay
A549 [7] = experiment: Antitumor activity against human A549 tumor spheroid cells assessed as reduction in size of tumor spheroid measured after 3 days by fluorescence microscopic analysis relative to control; type: functional; parameters: scale not given: the % may be the effect or the level left; settings: time 3 day
KB = experiment: Antiproliferative activity against human KB cells assessed as cell growth inhibition at 5 uM relative to control; type: functional; parameters: scale not given: the % may be the effect or the level left
WI-38 = experiment: Cytotoxicity against human WI-38 cells assessed as cell growth inhibition at 5 uM relative to control; type: functional; parameters: scale not given: the % may be the effect or the level left
[8] = Cytotoxicity against human HEK293T cells assessed as cell growth inhibition
DU-145 = experiment: Antiproliferative activity against human DU-145 cells assessed as cell growth inhibition; type: functional
ACHN = experiment: Antiproliferative activity against human ACHN cells assessed as cell growth inhibition; type: functional
NCI-H522 = experiment: Antiproliferative activity against human NCI-H522 cells assessed as cell growth inhibition; type: functional
SF-295 = experiment: Antiproliferative activity against human SF-295 cells assessed as cell growth inhibition; type: functional
UACC-62 = experiment: Antiproliferative activity against human UACC-62 cells assessed as cell growth inhibition; type: functional
M14 = experiment: Antiproliferative activity against human M14 cells assessed as cell growth inhibition; type: functional
786-0 = experiment: Antiproliferative activity against human 786-0 cells assessed as cell growth inhibition; type: functional
HOP-92 = experiment: Antiproliferative activity against human HOP-92 cells assessed as cell growth inhibition; type: functional
UACC-257 = experiment: Antiproliferative activity against human UACC-257 cells assessed as cell growth inhibition; type: functional
HL-60(TB) = experiment: Antiproliferative activity against human HL-60(TB) cells assessed as cell growth inhibition; type: functional
UO-31 = experiment: Antiproliferative activity against human UO-31 cells assessed as cell growth inhibition; type: functional
RXF 393 = experiment: Antiproliferative activity against human RXF 393 cells assessed as cell growth inhibition; type: functional
CCRF-CEM = experiment: Antiproliferative activity against human CCRF-CEM cells assessed as cell growth inhibition; type: functional
LOX IMVI = experiment: Antiproliferative activity against human LOX IMVI cells assessed as cell growth inhibition; type: functional
CAKI-1 [9] = experiment: Antiproliferative activity against human CAKI-1 cells assessed as cell growth inhibition; type: functional
A549 [10] = experiment: Antiproliferative activity against human A549 cells assessed as cell growth inhibition; type: functional, cell-based
DNA [11] = experiment: Induction of ROS-mediated DNA (unknown origin) assessed as efficiency of ICL formation preincubated with compounds followed by H2O2 addition relative to control; type: functional
SF-539 = experiment: Antiproliferative activity against human SF-539 cells assessed as cell growth inhibition; type: functional
SNB-75 = experiment: Antiproliferative activity against human SNB-75 cells assessed as cell growth inhibition; type: functional
SR [12] = experiment: Antiproliferative activity against human SR cells assessed as cell growth inhibition; type: functional
NCI-H460 [13] = experiment: Antiproliferative activity against human NCI-H460 cells assessed as cell growth inhibition; type: functional
MCF7 = experiment: Antiproliferative activity against human MCF7 cells assessed as cell growth inhibition; type: functional
NCI-H23 = experiment: Antiproliferative activity against human NCI-H23 cells assessed as cell growth inhibition; type: functional
SF-268 = experiment: Antiproliferative activity against human SF-268 cells assessed as cell growth inhibition; type: functional
MDA-MB-468 = experiment: Antiproliferative activity against human MDA-MB-468 cells assessed as cell growth inhibition; type: functional
MOLT-4 = experiment: Antiproliferative activity against human MOLT-4 cells assessed as cell growth inhibition; type: functional
NCI-H460 [14] = experiment: Antiproliferative activity against human NCI-H460 cells assessed as cell growth inhibition at 10 uM by SRB assay; type: functional; parameters: scale not given: the % may be the effect or the level left
CAKI-1 [15] = experiment: Antiproliferative activity against human CAKI-1 cells assessed as cell growth inhibition at 10 uM by SRB assay; type: functional; parameters: scale not given: the % may be the effect or the level left
SR [16] = experiment: Antiproliferative activity against human SR cells assessed as cell growth inhibition at 10 uM by SRB assay; type: functional; parameters: scale not given: the % may be the effect or the level left
DNA [17] = experiment: Induction of ROS-mediated DNA (unknown origin) ICL formation by measuring rate constant preincubated with compounds followed by H2O2 addition; type: functional
SN12C = experiment: Antiproliferative activity against human SN12C cells assessed as cell growth inhibition at 10 uM by SRB assay; type: functional; parameters: scale not given: the % may be the effect or the level left
MIA PaCa-2 = experiment: Antiproliferative activity against human MIA PaCa-2 cells assessed as cell growth inhibition; type: functional, cell-based
4T1 = experiment: Antiproliferative activity against mouse 4T1 cells assessed as cell growth inhibition; type: functional, cell-based

Chain of Matrix metalloproteinase-9 (P14780 whole entry): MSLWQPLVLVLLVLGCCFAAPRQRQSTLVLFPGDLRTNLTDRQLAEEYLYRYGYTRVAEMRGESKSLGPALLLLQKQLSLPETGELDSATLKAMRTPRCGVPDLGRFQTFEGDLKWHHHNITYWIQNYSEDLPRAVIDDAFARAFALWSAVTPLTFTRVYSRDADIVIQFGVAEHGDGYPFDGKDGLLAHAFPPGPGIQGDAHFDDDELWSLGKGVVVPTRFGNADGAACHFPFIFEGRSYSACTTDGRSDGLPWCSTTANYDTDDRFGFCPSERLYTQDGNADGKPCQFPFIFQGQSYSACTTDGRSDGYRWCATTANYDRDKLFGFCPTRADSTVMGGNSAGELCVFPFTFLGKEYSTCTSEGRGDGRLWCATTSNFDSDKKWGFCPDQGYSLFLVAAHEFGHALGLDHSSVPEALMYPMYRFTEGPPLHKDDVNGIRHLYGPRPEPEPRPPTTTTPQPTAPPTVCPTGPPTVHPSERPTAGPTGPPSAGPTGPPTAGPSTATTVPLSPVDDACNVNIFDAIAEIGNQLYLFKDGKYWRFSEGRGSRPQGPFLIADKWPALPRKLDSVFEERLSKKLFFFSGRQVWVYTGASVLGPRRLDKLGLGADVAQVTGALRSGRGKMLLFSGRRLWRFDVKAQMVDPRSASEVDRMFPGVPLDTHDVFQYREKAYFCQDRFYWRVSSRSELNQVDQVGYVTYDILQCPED
Chain of Keap1/Nrf2 (Q16236 whole entry): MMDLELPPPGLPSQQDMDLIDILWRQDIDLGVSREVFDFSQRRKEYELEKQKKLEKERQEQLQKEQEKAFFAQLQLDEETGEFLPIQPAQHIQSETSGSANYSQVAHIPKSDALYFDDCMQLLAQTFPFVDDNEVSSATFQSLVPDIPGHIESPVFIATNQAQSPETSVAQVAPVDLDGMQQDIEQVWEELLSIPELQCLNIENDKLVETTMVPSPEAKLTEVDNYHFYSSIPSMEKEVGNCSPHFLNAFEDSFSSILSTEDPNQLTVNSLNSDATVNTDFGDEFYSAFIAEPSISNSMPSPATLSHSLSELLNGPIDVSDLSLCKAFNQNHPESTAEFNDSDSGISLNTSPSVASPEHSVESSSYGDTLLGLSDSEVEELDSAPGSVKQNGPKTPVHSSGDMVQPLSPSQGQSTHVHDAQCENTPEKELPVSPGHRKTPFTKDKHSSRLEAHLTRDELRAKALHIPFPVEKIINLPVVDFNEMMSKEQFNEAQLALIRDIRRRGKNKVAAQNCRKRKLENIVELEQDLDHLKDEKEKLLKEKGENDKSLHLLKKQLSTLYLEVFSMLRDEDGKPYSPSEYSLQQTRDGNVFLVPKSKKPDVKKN
Chain of Keap1/Nrf2 (Q14145 whole entry): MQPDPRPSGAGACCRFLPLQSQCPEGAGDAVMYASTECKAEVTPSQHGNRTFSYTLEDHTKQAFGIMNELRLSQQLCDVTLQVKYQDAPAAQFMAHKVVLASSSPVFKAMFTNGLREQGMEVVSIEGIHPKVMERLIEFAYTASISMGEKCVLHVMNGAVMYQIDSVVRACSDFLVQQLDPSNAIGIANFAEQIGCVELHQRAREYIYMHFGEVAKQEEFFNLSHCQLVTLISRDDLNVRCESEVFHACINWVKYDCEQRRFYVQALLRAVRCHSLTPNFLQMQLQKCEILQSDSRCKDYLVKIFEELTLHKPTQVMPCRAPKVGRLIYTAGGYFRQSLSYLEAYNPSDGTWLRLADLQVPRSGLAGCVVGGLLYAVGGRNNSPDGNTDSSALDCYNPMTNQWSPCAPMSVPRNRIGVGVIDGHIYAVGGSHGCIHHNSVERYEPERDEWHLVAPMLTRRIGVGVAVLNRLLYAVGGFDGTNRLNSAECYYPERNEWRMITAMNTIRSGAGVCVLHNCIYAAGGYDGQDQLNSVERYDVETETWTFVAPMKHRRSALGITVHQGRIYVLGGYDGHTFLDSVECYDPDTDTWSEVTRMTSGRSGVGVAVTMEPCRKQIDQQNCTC

## COC(=O)[C@]1([Se]c2ccccc2)C[C@]2(C)C(=O)[C@]1(C)C(c1ccccc1)=C2c1ccccc1
HeLa [1]
  Activity: <=80%

## COc1cccc2c1C(=O)c1c(O)c3c(c(O)c1C2=O)C[C@@](O)(C(=O)CO)C[C@@H]3O[C@H]1C[C@H](N)[C@H](O)[C@H](C)O1 [DOXORUBICIN]
HeLa [2]
  Activity: 20%

## CC1(C)OB(c2ccc(COn3c(C(=O)NCc4ccc(-c5ccccc5)cc4)cccc3=O)cc2)OC1(C)C
[3]
  IC50: > 1000 µM
[4]
  bioavailability: 68.1%
[5]
  EC50: 0.32 µM
[6]
  Papp: 6.35 ×10⁻⁶ cm/s
Keap1/Nrf2
  IC50: 0.0967 µM

## O=C(CCCCCCC(=O)Nc1ccccc1)NO [VORINOSTAT]
A549 [7]
  Activity: 50%

## CCN(CC)c1ccc2c(c1)Oc1cc(OCc3ccc(B4OC(C)(C)C(C)(C)O4)cc3)c(COC(=O)OC3(CC)C(=O)OCc4c3cc3n(c4=O)Cc4cc5ccccc5nc4-3)cc1C21c2ccccc2CN1CCNC(=O)CCC(NC(=O)c1ccc(NCc2cnc3[nH]c(N)nc(=O)c3n2)cc1)C(=O)O (stereo not drawn)
KB
  Activity: 70%
WI-38
  Activity: 100%

## CC1(C)OB(c2ccc(COC(=O)ONC(=O)CCCCCCC(=O)Nc3ccccc3)cc2)OC1(C)C
A549 [7]
  Activity: 80%
[8]
  EC50: > 1 µM

## CC1(C)OB(c2ccc(COC(=O)Nc3ccc(N(CCCl)CCCl)cc3)cc2)OC1(C)C
DU-145
  GI50: < 1 µM
ACHN
  GI50: < 1 µM
NCI-H522
  GI50: < 1 µM
SF-295
  GI50: < 1 µM
UACC-62
  GI50: < 1 µM
M14
  GI50: < 1 µM
786-0
  GI50: < 1 µM
HOP-92
  GI50: < 1 µM
UACC-257
  GI50: < 1 µM
HL-60(TB)
  GI50: < 1 µM
UO-31
  GI50: < 1 µM
RXF 393
  GI50: < 1 µM
CCRF-CEM
  GI50: < 1 µM
LOX IMVI
  GI50: < 1 µM
CAKI-1 [9]
  GI50: < 1 µM
A549 [10]
  GI50: < 1 µM
DNA [11]
  Activity: 47%
SF-539
  GI50: < 1 µM
SNB-75
  GI50: < 1 µM
SR [12]
  GI50: < 1 µM
NCI-H460 [13]
  GI50: < 1 µM
MCF7
  GI50: < 1 µM
NCI-H23
  GI50: < 1 µM
SF-268
  GI50: < 1 µM
MDA-MB-468
  GI50: < 1 µM
MOLT-4
  GI50: < 1 µM

## CC1(C)OB(c2ccc(COc3c(C(=O)NCc4ccc(-c5ccccc5)cc4)occc3=O)cc2)OC1(C)C
[3]
  IC50: > 1000 µM

## CC1(C)OB(c2ccc(C[N+](C)(CCCl)CCCl)cc2)OC1(C)C.[Br-]
NCI-H460 [14]
  Activity: 85%
DNA [11]
  Activity: 43%
CAKI-1 [15]
  Activity: 66%
SR [16]
  Activity: 90%
DNA [17]
  K: 4.6 10^-5/s
SN12C
  Activity: 57%

## COc1cccc2c1C(=O)c1c(O)c3c(c(O)c1C2=O)C[C@@](O)(C(=O)CO)C[C@@H]3O[C@H]1C[C@H](NC(=O)OCc2ccc(B3OC(C)(C)C(C)(C)O3)cc2)[C@H](O)[C@H](C)O1
MIA PaCa-2
  IC50: 0.3 µM

## CCCCC/C=C\C/C=C\CCCCCCCC(=O)OCCOC(=O)CSCC(=O)OC(C(=O)OC1C[C@@]2(O)[C@@H](OC(=O)c3ccccc3)[C@@H]3[C@]4(OC(C)=O)CO[C@@H]4C[C@H](O)[C@@]3(C)C(=O)[C@H](OC(C)=O)C(=C1C)C2(C)C)C(NC(=O)c1ccccc1)c1ccccc1 (stereo partly drawn)
A549 [10]
  IC50: 0.176 µM
4T1
  IC50: 0.127 µM

Reference: ChEMBL document CHEMBL5226283, “Reactive Oxygen Species (ROS)-Responsive Prodrugs, Probes, and Theranostic Prodrugs: Applications in the ROS-Related Diseases” (J Med Chem, 2021)
